Peptide text beside a SMILES is read from it.

Data on 19 molecules can be found in ChEMBL document CHEMBL3085717, “Structural and thermodynamic dissection of linear motif recognition by the E. coli sliding clamp” (J Med Chem, 2013).

This assay is described as follows: Displacement of 5'-fluorescein(FAM)-QLDLF-OH from Escherichia coli AN1459 DNA polymerase 3beta by fluorescence polarization assay. On the technique in general: Fluorescence polarisation rises when a labelled molecule tumbles more slowly, as on binding a larger partner.
Molecule Ac-ALDLF-OH gave a half-inhibitory concentration (IC50) of 603 µM and a Kd of 281 µM. The corresponding values for Ac-QLGLF-OH are 10.4 µM and 4.9 µM. Molecule Ac-ELDLF-OH displayed an IC50 of 222 µM and a Kd of 104 µM. The corresponding values for Ac-QVDLF-OH are 60.4 µM and 28.2 µM. The corresponding values for `CC(=O)N[C@@H](CCC(N)=O)C(=O)N[C@@H](CC(C)C)C(=O)N[C@@H](CC(=O)O)C(=O)N[C@@H](CC(C)C)C(=O)N[C@@H](Cc1ccccc1)C(=O)O` are 1.9 µM and 0.9 µM. The corresponding values for Ac-QLDGF-OH are 1520 µM and 711 µM. Regarding Ac-QLDLA-OH, the 50% inhibitory concentration (IC50) was 555 µM and the Kd worked out at 259 µM. The corresponding values for `CC(C)C[C@H](NC(=O)[C@H](CC(=O)O)NC(=O)[C@H](CC(C)C)NC(=O)[C@@H](N)CCC(N)=O)C(=O)N[C@@H](Cc1ccccc1)C(=O)O` are 63.2 µM and 29.5 µM. Turning to Ac-QLDVF-OH, the half-maximal inhibitory concentration (IC50) amounted to 1220 µM and the affinity, expressed as Kd, was 567 µM. For the molecule `CC(=O)N[C@@H](CC(C)C)C(=O)N[C@@H](Cc1ccccc1)C(=O)O` (Ac-Leu-Phe-OH), the IC50 stood at 1100 µM. In turn, Ac-GLDLF-OH registered a concentration for half-maximal inhibition (IC50) of 976 µM and a Kd of 456 µM. The corresponding values for Ac-NLDLF-OH are 43.6 µM and 20.3 µM. Consider `CC(C)CCC(=O)N[C@@H](Cc1ccccc1)C(=O)O`, for which the IC50 was 4440 µM. Molecule Ac-QLDAF-OH registered an IC50 of 247 µM and a dissociation constant Kd of 115 µM. The corresponding values for Ac-QADLF-OH are 78.6 µM and 36.7 µM. The corresponding values for Ac-QGDLF-OH are 36.1 µM and 16.8 µM. For the molecule Ac-QLDLG-OH, the half-inhibitory concentration (IC50) is 1070 µM and the Kd is 498 µM. The corresponding values for Ac-QLALF-OH are 3.4 µM and 1.6 µM. The corresponding values for Ac-QLDLL-OH are 21 µM and 9.8 µM.

What is called IC50 is the midpoint of a concentration-inhibition curve. A high value points to weaker potency. A word on the Kd: it is the concentration at which binding is half-saturated. Read a high Kd as lower affinity.
